Assay results reported in the NIST ThermoML archive (doi:10.1016/j.fluid.2019.02.006).
Numbers after ± are expanded uncertainties.

Experiments:
[1] = xn = mol fraction of the nth substance listed; conditions: 298.15 K, 100 kPa, Liquid, Vibrating tube method
[2] = 298.15 K; 100 kPa; Liquid; Vibrating tube method

`C1CCCCC1` [cyclohexane] + CCCCCCCCO gave a mass density ([1]; x1 = 1) of 773.6 ± 1 kg/m3.
For `C1CCCCC1` [cyclohexane] + CCCCCO, the mass density ([1]; x1 = 1) was 773.6 ± 1 kg/m3.
`CCCCCO` [pentan-1-ol] + C1CCCCC1 showed a mass density ([1]; x2 = 0) of 810.8 ± 1 kg/m3, a mass density ([1]; x2 = 0.081) of 807.1 ± 1 kg/m3 and a mass density ([1]; x2 = 0.1607) of 803.6 ± 1 kg/m3. It also gave a mass density ([1]; x2 = 0.2403) of 800.1 ± 1 kg/m3, a mass density ([1]; x2 = 0.3487) of 795.4 ± 1 kg/m3 and a mass density ([1]; x2 = 0.4396) of 791.7 ± 1 kg/m3. It also gave a mass density ([1]; x2 = 0.5597) of 787 ± 1 kg/m3, a mass density ([1]; x2 = 0.6498) of 783.7 ± 1 kg/m3 and a mass density ([1]; x2 = 0.7408) of 780.6 ± 1 kg/m3. For the same compound, the mass density ([1]; x2 = 0.8499) was 777.1 ± 1 kg/m3 and the mass density ([1]; x2 = 0.9406) was 774.8 ± 1 kg/m3.
`CCCCCCCCCCO` [decan-1-ol] showed a mass density [2] of 826.1 ± 1 kg/m3.
`CCCCCCO` [hexan-1-ol] + C1CCCCC1 gave a mass density ([1]; x2 = 0) of 815.1 ± 1 kg/m3, a mass density ([1]; x2 = 0.0811) of 811.6 ± 1 kg/m3 and a mass density ([1]; x2 = 0.1597) of 808.2 ± 1 kg/m3. The mass density ([1]; x2 = 0.2415) was 804.6 ± 1 kg/m3, the mass density ([1]; x2 = 0.3498) was 799.8 ± 1 kg/m3 and the mass density ([1]; x2 = 0.4412) was 795.8 ± 1 kg/m3. It also gave a mass density ([1]; x2 = 0.5588) of 790.7 ± 1 kg/m3, a mass density ([1]; x2 = 0.65) of 786.8 ± 1 kg/m3 and a mass density ([1]; x2 = 0.7404) of 783.2 ± 1 kg/m3. The mass density ([1]; x2 = 0.8499) was 778.8 ± 1 kg/m3 and the mass density ([1]; x2 = 0.9398) was 775.6 ± 1 kg/m3.
In the case of `CCCCCCCCO` [octan-1-ol], the mass density [2] is reported as 821.4 ± 1 kg/m3.
With `CCCCCCCCCCO` [decan-1-ol] + C1CCCCC1 the mass density ([1]; x2 = 0) was 826.1 ± 1 kg/m3, the mass density ([1]; x2 = 0.0819) was 823.7 ± 1 kg/m3 and the mass density ([1]; x2 = 0.1596) was 820.8 ± 1 kg/m3. The mass density ([1]; x2 = 0.2401) was 817.6 ± 1 kg/m3, the mass density ([1]; x2 = 0.3482) was 812.9 ± 1 kg/m3 and the mass density ([1]; x2 = 0.4395) was 808.7 ± 1 kg/m3. It also gave a mass density ([1]; x2 = 0.5598) of 802.6 ± 1 kg/m3, a mass density ([1]; x2 = 0.6498) of 797.6 ± 1 kg/m3 and a mass density ([1]; x2 = 0.7404) of 792.3 ± 1 kg/m3. The mass density ([1]; x2 = 0.849) was 785.2 ± 1 kg/m3 and the mass density ([1]; x2 = 0.9394) was 778.6 ± 1 kg/m3.
Work on `CCCCCCCCO` [octan-1-ol] + C1CCCCC1 yielded a mass density ([1]; x2 = 0) of 821.4 ± 1 kg/m3, a mass density ([1]; x2 = 0.0815) of 818.3 ± 1 kg/m3 and a mass density ([1]; x2 = 0.1602) of 815.1 ± 1 kg/m3. For the same compound, the mass density ([1]; x2 = 0.2408) was 811.7 ± 1 kg/m3, the mass density ([1]; x2 = 0.3494) was 806.9 ± 1 kg/m3 and the mass density ([1]; x2 = 0.4398) was 802.7 ± 1 kg/m3. The mass density ([1]; x2 = 0.5605) was 796.8 ± 1 kg/m3, the mass density ([1]; x2 = 0.6496) was 792.4 ± 1 kg/m3 and the mass density ([1]; x2 = 0.7404) was 787.8 ± 1 kg/m3. The mass density ([1]; x2 = 0.8495) was 782 ± 1 kg/m3 and the mass density ([1]; x2 = 0.94) was 777 ± 1 kg/m3.
`CCCCCCCO` [heptan-1-ol] showed a mass density [2] of 818.7 ± 1 kg/m3.
Compound `C1CCCCC1` [cyclohexane] + CCCCCCCCCO has a mass density ([1]; x1 = 1) of 773.6 ± 1 kg/m3.
With `CCCCCO` [pentan-1-ol] the mass density [2] was 810.8 ± 1 kg/m3.
In the case of `CCCCCCCO` [heptan-1-ol] + C1CCCCC1, the mass density ([1]; x2 = 0) is reported as 818.7 ± 1 kg/m3, the mass density ([1]; x2 = 0.0805) is reported as 815.5 ± 1 kg/m3 and the mass density ([1]; x2 = 0.1601) is reported as 812.1 ± 1 kg/m3. The mass density ([1]; x2 = 0.2392) was 808.7 ± 1 kg/m3, the mass density ([1]; x2 = 0.3503) was 803.7 ± 1 kg/m3 and the mass density ([1]; x2 = 0.4391) was 799.7 ± 1 kg/m3. The mass density ([1]; x2 = 0.5604) was 794 ± 1 kg/m3, the mass density ([1]; x2 = 0.6502) was 789.8 ± 1 kg/m3 and the mass density ([1]; x2 = 0.7396) was 785.7 ± 1 kg/m3. It also gave a mass density ([1]; x2 = 0.8497) of 780.5 ± 1 kg/m3 and a mass density ([1]; x2 = 0.94) of 776.4 ± 1 kg/m3.
For `CCCCCCCCCO` [nonan-1-ol] + C1CCCCC1, the mass density ([1]; x2 = 0) was 824 ± 1 kg/m3, the mass density ([1]; x2 = 0.0817) was 821.1 ± 1 kg/m3 and the mass density ([1]; x2 = 0.1605) was 818 ± 1 kg/m3. For the same compound, the mass density ([1]; x2 = 0.2409) was 814.7 ± 1 kg/m3, the mass density ([1]; x2 = 0.3496) was 810 ± 1 kg/m3 and the mass density ([1]; x2 = 0.4399) was 805.8 ± 1 kg/m3. It also gave a mass density ([1]; x2 = 0.5606) of 799.8 ± 1 kg/m3, a mass density ([1]; x2 = 0.6497) of 795.1 ± 1 kg/m3 and a mass density ([1]; x2 = 0.7406) of 790 ± 1 kg/m3. For the same compound, the mass density ([1]; x2 = 0.8497) was 783.6 ± 1 kg/m3 and the mass density ([1]; x2 = 0.9403) was 777.8 ± 1 kg/m3.
Work on `CCCCCCO` [hexan-1-ol] yielded a mass density [2] of 815.1 ± 1 kg/m3.
`CCCCCCCCCO` [nonan-1-ol] gave a mass density [2] of 824 ± 1 kg/m3.
Compound `C1CCCCC1` [cyclohexane] has a mass density [2] of 773.6 ± 1 kg/m3.
With `C1CCCCC1` [cyclohexane] + CCCCCCCO the mass density ([1]; x1 = 1) was 773.6 ± 1 kg/m3.
`C1CCCCC1` [cyclohexane] + CCCCCCO gave a mass density ([1]; x1 = 1) of 773.6 ± 1 kg/m3.
Compound `C1CCCCC1` [cyclohexane] + CCCCCCCCCCO has a mass density ([1]; x1 = 1) of 773.6 ± 1 kg/m3.
